Experimental findings from patent US8865897B2, “Crystal modifications-3-(1H-indol-3-yl)-4- [4-methyl-piperazin-1-yl)-quinazolin-4-yl] -pyrrole-2, 5-D ione” (Novartis AG, priority 2006, dated 2014) are described below.

Where two headings read alike, the source gives them in different places.

Turning to `CC(=O)O.CN1CCN(c2nc(C3=C(c4c[nH]c5ccccc45)C(=O)NC3=O)c3ccccc3n2)CC1` [Form B, 3-(1.H.-indol-3-yl)-4-[2-(4-methyl-piperazin-1-yl)-quinazolin-4-yl]-pyrrole-2,5-dione acetate], the “Moisture Sorption at 25°” value (Relative humidity 45 %) turned out to be 0.4; the “Moisture Sorption at 25°” value (Relative humidity 55 %) amounted to 0.5; the “Moisture Sorption at 25°” value (Relative humidity 75 %) was found to be 0.6; the “Moisture Sorption at 25°” value (Relative humidity 85 %) came to 0.7; the “Moisture Sorption at 25°” value (Relative humidity 95 %) was determined as 0.6. Besides, the “XRPD pattern after DVS” value (after DVS moisture sorption at 25°) was “no change”. The same compound displayed a maximum water uptake (at 80% r.h.) of 0.7%.
